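Exposure lasted 48 hours, with cells grown in 96-well plates and compounds tested at five concentrations. GI50 marks 50% less growth.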 Calls of active or inactive are those of the source. Rule as the data show it: active = GI50 up to about 1.1 µM and inactive = higher.
How the values were obtained:
Assay in all cases: growth of human tumour cells (NCI), 48 h
M14 = tested on: M14
MDA-MB-435 = tested on: MDA-MB-435
NCI-H460 = tested on: NCI-H460
RXF 393 = tested on: RXF 393
HCT-15 = tested on: HCT-15
MDA-N = tested on: MDA-N
A549 = tested on: A549
IGROV-1 = tested on: IGROV-1
U-251 = tested on: U-251
SK-MEL-28 = tested on: SK-MEL-28
Hs-578T = tested on: Hs-578T
BT-549 = tested on: BT-549
SF-268 = tested on: SF-268
UO-31 = tested on: UO-31
HOP-92 = tested on: HOP-92
HOP-62 = tested on: HOP-62
OVCAR-3 = tested on: OVCAR-3
COLO 205 = tested on: COLO 205
SK-MEL-5 = tested on: SK-MEL-5
UACC-257 = tested on: UACC-257
T47D = tested on: T47D
LOX IMVI = tested on: LOX IMVI
PC-3 = tested on: PC-3
OVCAR-8 = tested on: OVCAR-8
SW-620 = tested on: SW-620
NCI-H522 = tested on: NCI-H522
DU-145 = tested on: DU-145
A498 = tested on: A498
SK-OV-3 = tested on: SK-OV-3
HCT-116 = tested on: HCT-116
NCI-H23 = tested on: NCI-H23
OVCAR-4 = tested on: OVCAR-4
Malme-3M = tested on: Malme-3M
SNB-19 = tested on: SNB-19
KM12 = tested on: KM12
SNB-75 = tested on: SNB-75
EKVX = tested on: EKVX
SK-MEL-2 = tested on: SK-MEL-2
HT-29 = tested on: HT-29
SR = tested on: SR
CAKI-1 = tested on: CAKI-1
SF-539 = tested on: SF-539
SN12C = tested on: SN12C
TK-10 = tested on: TK-10
K562 = tested on: K562
RPMI-8226 = tested on: RPMI-8226
ACHN = tested on: ACHN
786-0 = tested on: 786-0
SF-295 = tested on: SF-295
NCI/ADR-RES = tested on: NCI/ADR-RES
NCI-H226 = tested on: NCI-H226
MDA-MB-231 = tested on: MDA-MB-231
MOLT-4 = tested on: MOLT-4
MCF7 = tested on: MCF7
UACC-62 = tested on: UACC-62
HL-60 = tested on: HL-60
OVCAR-5 = tested on: OVCAR-5
CCRF-CEM = tested on: CCRF-CEM

## Cc1cc2cc3c(O)nc(O)nc3nc2cc1C
M14
  GI50: > 100 µM (inactive)
MDA-MB-435
  GI50: > 100 µM (inactive)
NCI-H460
  GI50: > 100 µM (inactive)
RXF 393
  GI50: 52.2 µM (inactive)
HCT-15
  GI50: > 100 µM
MDA-N
  GI50: > 100 µM (inactive)
A549
  GI50: > 100 µM (inactive)
IGROV-1
  GI50: > 100 µM (inactive)
U-251
  GI50: > 100 µM (inactive)
SK-MEL-28
  GI50: > 100 µM (inactive)
Hs-578T
  GI50: > 100 µM (inactive)
BT-549
  GI50: > 100 µM (inactive)
SF-268
  GI50: > 100 µM (inactive)
UO-31
  GI50: > 100 µM (inactive)
HOP-92
  GI50: > 100 µM (inactive)
HOP-62
  GI50: > 100 µM (inactive)
OVCAR-3
  GI50: > 100 µM (inactive)
COLO 205
  GI50: > 100 µM (inactive)
SK-MEL-5
  GI50: > 100 µM (inactive)
UACC-257
  GI50: > 100 µM (inactive)
T47D
  GI50: > 100 µM (inactive)
LOX IMVI
  GI50: > 100 µM (inactive)
PC-3
  GI50: > 100 µM (inactive)
OVCAR-8
  GI50: > 100 µM (inactive)
SW-620
  GI50: > 100 µM (inactive)
NCI-H522
  GI50: > 100 µM (inactive)
DU-145
  GI50: > 100 µM (inactive)
A498
  GI50: > 100 µM (inactive)
SK-OV-3
  GI50: > 100 µM (inactive)
HCT-116
  GI50: > 100 µM (inactive)
NCI-H23
  GI50: > 100 µM (inactive)
OVCAR-4
  GI50: > 100 µM (inactive)
Malme-3M
  GI50: > 100 µM (inactive)
SNB-19
  GI50: > 100 µM (inactive)
KM12
  GI50: > 100 µM (inactive)
SNB-75
  GI50: 27.6 µM (inactive)
EKVX
  GI50: > 100 µM (inactive)
SK-MEL-2
  GI50: > 100 µM (inactive)
HT-29
  GI50: > 100 µM (inactive)
SR
  GI50: > 100 µM (inactive)
CAKI-1
  GI50: > 100 µM (inactive)
SF-539
  GI50: > 100 µM (inactive)
SN12C
  GI50: > 100 µM (inactive)
TK-10
  GI50: > 100 µM (inactive)
K562
  GI50: > 100 µM (inactive)
RPMI-8226
  GI50: > 100 µM (inactive)
ACHN
  GI50: > 100 µM (inactive)
786-0
  GI50: > 100 µM (inactive)
SF-295
  GI50: > 100 µM (inactive)
NCI/ADR-RES
  GI50: > 100 µM (inactive)
NCI-H226
  GI50: > 100 µM (inactive)
MDA-MB-231
  GI50: > 100 µM (inactive)
MOLT-4
  GI50: > 100 µM (inactive)
MCF7
  GI50: > 100 µM (inactive)
UACC-62
  GI50: > 100 µM (inactive)
HL-60
  GI50: > 100 µM (inactive)
OVCAR-5
  GI50: > 100 µM (inactive)

## O=C1c2ccccc2-c2ccc(NC(=O)C3CCCCC3C(=O)O)cc21 (stereo not given)
M14
  GI50: > 100 µM (inactive)
MDA-MB-435
  GI50: > 100 µM (inactive)
NCI-H460
  GI50: > 100 µM (inactive)
RXF 393
  GI50: > 100 µM (inactive)
HCT-15
  GI50: > 100 µM
MDA-N
  GI50: > 100 µM (inactive)
A549
  GI50: > 100 µM (inactive)
IGROV-1
  GI50: > 100 µM (inactive)
U-251
  GI50: > 100 µM (inactive)
SK-MEL-28
  GI50: > 100 µM (inactive)
Hs-578T
  GI50: > 100 µM (inactive)
BT-549
  GI50: > 100 µM (inactive)
SF-268
  GI50: > 100 µM (inactive)
UO-31
  GI50: > 100 µM (inactive)
HOP-92
  GI50: > 100 µM (inactive)
HOP-62
  GI50: > 100 µM (inactive)
OVCAR-3
  GI50: > 100 µM (inactive)
COLO 205
  GI50: > 100 µM (inactive)
SK-MEL-5
  GI50: > 100 µM (inactive)
UACC-257
  GI50: > 100 µM (inactive)
T47D
  GI50: > 100 µM (inactive)
LOX IMVI
  GI50: > 100 µM (inactive)
PC-3
  GI50: > 100 µM (inactive)
OVCAR-8
  GI50: > 100 µM (inactive)
SW-620
  GI50: > 100 µM (inactive)
NCI-H522
  GI50: > 100 µM (inactive)
DU-145
  GI50: > 100 µM (inactive)
A498
  GI50: > 100 µM (inactive)
SK-OV-3
  GI50: > 100 µM (inactive)
HCT-116
  GI50: > 100 µM (inactive)
CCRF-CEM
  GI50: > 100 µM (inactive)
NCI-H23
  GI50: > 100 µM (inactive)
OVCAR-4
  GI50: > 100 µM (inactive)
Malme-3M
  GI50: > 100 µM (inactive)
SNB-19
  GI50: > 100 µM (inactive)
KM12
  GI50: > 100 µM (inactive)
SNB-75
  GI50: > 100 µM (inactive)
EKVX
  GI50: > 100 µM (inactive)
SK-MEL-2
  GI50: > 100 µM (inactive)
HT-29
  GI50: 87.3 µM (inactive)
SR
  GI50: > 100 µM (inactive)
CAKI-1
  GI50: > 100 µM (inactive)
SF-539
  GI50: > 100 µM (inactive)
SN12C
  GI50: 96.4 µM (inactive)
TK-10
  GI50: > 100 µM (inactive)
K562
  GI50: > 100 µM (inactive)
RPMI-8226
  GI50: > 100 µM (inactive)
ACHN
  GI50: > 100 µM (inactive)
786-0
  GI50: > 100 µM (inactive)
SF-295
  GI50: > 100 µM (inactive)
NCI/ADR-RES
  GI50: > 100 µM (inactive)
NCI-H226
  GI50: > 100 µM (inactive)
MDA-MB-231
  GI50: > 100 µM (inactive)
MOLT-4
  GI50: > 100 µM (inactive)
MCF7
  GI50: 85.5 µM (inactive)
UACC-62
  GI50: > 100 µM (inactive)
HL-60
  GI50: > 100 µM (inactive)
OVCAR-5
  GI50: > 100 µM (inactive)

From ChEMBL document CHEMBL1201862, “PubChem BioAssay data set” (2004)
